Target: T1, human Edg-1 receptor (Homo sapiens, UniProt P21453)
T1 construct: FLAG (N); expressed in transfected cells; membrane preparation
Experiment: GTP-γ-S assay using human Edg-1 receptors (scintillation proximity assay, CHO Flp-In cell membrane preparation)
Assay type: biochemical
Details: test compound 10 μM; 10 μM S1P regarded as 100% activation; background-corrected; triplicate
Source text: Determination of the Pharmacological Activity A) GTP-γ-S Assay Using Human Edg-1 Receptors In order to determine the Edg-1 receptor activation by the compounds of the invention, a GTP-γ-S ((GTP-γ-S=guanosine 5′-[thio]triphosphate) assay for G-protein coupled receptor binding based on the scintillation proximity assay principle was used, employing a cell membrane preparation from a CHO Flp-In cell line which constitutively overexpresses the human Edg-1 receptor. The Flp-In™ expression system (Invitrogen/Life Technologies™ cat. no. K6010-01) allows the generation of stable mammalian cell lines into which the gene of interest has been integrated through […] at a specific genomic location called Flp Recombination Target (FRT) site by means of a Flp recombinase encoded by the pOG44 expression plasmid. […] The EDG-1 membrane preparation obtained in (b) was initially used in a commercial scintillation proximity assay kit (Amersham/GE Healthcare, cat. no. RPNQ0210) to quantify the receptor activation. Here, the ligand-induced binding of ^35S-radiolabeled GTP-γ-S to the receptor-containing membrane causes the emission of light in the scintillation beads attached to the membrane preparation, which allows quantification of the in vitro activity of the Edg-1-agonistic compound. […]

T1 sequence (P21453 whole entry): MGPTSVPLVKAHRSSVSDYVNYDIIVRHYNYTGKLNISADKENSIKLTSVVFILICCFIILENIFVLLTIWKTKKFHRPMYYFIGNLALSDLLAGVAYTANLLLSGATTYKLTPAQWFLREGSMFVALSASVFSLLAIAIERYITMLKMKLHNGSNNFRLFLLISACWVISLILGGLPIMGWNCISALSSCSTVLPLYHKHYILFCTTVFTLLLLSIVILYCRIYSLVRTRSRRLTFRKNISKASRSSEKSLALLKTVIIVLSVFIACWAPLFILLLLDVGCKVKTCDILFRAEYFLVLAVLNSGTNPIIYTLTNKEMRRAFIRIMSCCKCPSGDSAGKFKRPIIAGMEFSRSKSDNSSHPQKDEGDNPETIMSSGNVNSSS

Row | Compound | Edg-1 receptor activation by example compounds at 10 μM in percent of the activation by 10 μM S1P (% activation) [%]
1 | Cc1cc(-c2nc3cnc(Oc4cccc(Cl)c4)nc3o2)cc(C)c1OC1CC(C(=O)O)C1 (centres unmarked) [Example 1, 3-{4-[5-(3-Chlorophenoxy)oxazolo[5,4-d]pyrimidin-2-yl]-2,6-dimethylphenoxy}cyclobutanecarboxylic acid] | 116
2 | Cc1cc(-c2nc3cnc(Oc4ccccc4F)nc3o2)cc(C)c1OC1CC(C(=O)O)C1 (centres unmarked) [Example 2, 3-{4-[5-(2-Fluorophenoxy)oxazolo[5,4-d]pyrimidin-2-yl]-2,6-dimethylphenoxy}cyclobutanecarboxylic acid] | 83

From US8735402B2, “Cycloalkyloxycarboxylic acid derivatives” (Sanofi, priority 2011, dated 2014)
